This assay relates to Bacillus anthracis spores. The assay is classed as cell-based, Bacillus anthracis (Sterne).

In the case of `CCCCCCCCCCCC[N+](C)(C)C.[Br-]` [DTAB, dodecyltrimethylammonium bromide], the “% killing” value was 40%, the Spore colonies was found to be 84 ± 4, the “reduction in bacterial survival” value is “approximately 40%” and the “reduction of bacterial survival” value is listed as “approximately 40%”.
As for `O=C1OC2(c3cc(I)c(O)c(I)c3Oc3c2cc(I)c(O)c3I)c2c(Cl)c(Cl)c(Cl)c(Cl)c21` [RBL, Rose Bengal lactone], the “reduction in survival for B. anthracis” value is recorded as “approximately 40%”.
Take `CN(C)c1ccc2nc3ccc(=[N+](C)C)cc-3sc2c1` [MB, methylene blue]: the “inhibition of B. anthracis survival” value is recorded as “no inhibition” and the “reduction in survival for B. anthracis” value worked out at 75%.

For the origin of these results see US20050148254A1, “Light-activated biocidal polyelectrolytes” (priority 2003, published 2005).
